Experimental data as given in ChEMBL document CHEMBL1146865, “Synthesis and antifungal activity of a novel series of alkyldimethylamine cyanoboranes and their derivatives” (J Med Chem, 2006).
Converted amounts (≈) assume the structure as drawn.

Legend:
Candida albicans [1] = experiment: microbe, parasite or virus in culture; type: functional; conditions: CBS 562
Description: Antifungal activity against Candida albicans CBS 562

Candida albicans [2] = experiment: microbe, parasite or virus in culture; type: functional
Description: Antifungal activity against Candida albicans 607

Candida albicans [3] = experiment: microbe, parasite or virus in culture; type: functional; remark: listed apart in the source
Description: Antifungal activity against Candida albicans 615

Aspergillus fumigatus = experiment: microbe, parasite or virus in culture; type: functional; conditions: ATCC 64026
Description: Antifungal activity against Aspergillus fumigatus ATCC 64026

Nakaseomyces glabratus [4] = experiment: microbe, parasite or virus in culture; type: functional
Description: Antifungal activity against Candida glabrata 578

Nakaseomyces glabratus [5] = experiment: microbe, parasite or virus in culture; type: functional; remark: listed apart in the source
Description: Antifungal activity against Candida glabrata 646

Pichia kudriavzevii [6] = experiment: microbe, parasite or virus in culture; type: functional
Description: Antifungal activity against Candida krusei 638

[7] = Toxicity in ICR mouse at 1 to 2 mg/ml, iv after 8 days; conditions: in vivo
Nakaseomyces glabratus [8] = experiment: microbe, parasite or virus in culture; type: functional; remark: listed apart in the source
Description: Antifungal activity against Candida glabrata 572

Pichia kudriavzevii [9] = experiment: microbe, parasite or virus in culture; type: functional; remark: listed apart in the source
Description: Antifungal activity against Candida krusei 603

Nakaseomyces glabratus [10] = experiment: microbe, parasite or virus in culture; type: functional; remark: listed apart in the source
Description: Antifungal activity against Candida glabrata 566

Nakaseomyces glabratus [11] = experiment: microbe, parasite or virus in culture; type: functional; remark: listed apart in the source
Description: Antifungal activity against Candida glabrata 648

Structure (SMILES) | MIC (Candida albicans [1]) [µM] | MIC (Candida albicans [2]) [µM] | MIC (Candida albicans [3]) [µM] | MIC (Aspergillus fumigatus) [µM] | MIC (Nakaseomyces glabratus [4]) [µM] | MIC (Nakaseomyces glabratus [5]) [µM] | MIC (Pichia kudriavzevii [6]) [µM] | MTD at 192 h [7] [µmol/kg] | MIC (Nakaseomyces glabratus [8]) [µM] | MIC (Pichia kudriavzevii [9]) [µM] | MIC (Nakaseomyces glabratus [10]) [µM] | MIC (Nakaseomyces glabratus [11]) [µM]
CN(C)CCCCCCCCCCN(C)C.N#CBBr.N#CBBr | 140 | 140 | 140 | – | – | – | – | – | – | – | – | –
BC#N.CN(C)C | 5100 | > 5100 | > 5100 | > 5100 | – | – | – | – | – | – | – | –
CCCCCCCCCCCN(C)C.N#CB(Br)Br | 39 | 39 | 39 | 79 | 40.4 | 20.2 | 10.1 | 73.1 | 40.4 | 10.1 | 20.2 | 20.2
CN(C)CCCCCCCCCCN(C)C.N#CB(Br)Br.N#CB(Br)Br | 104 | 104 | 104 | – | – | – | – | – | – | – | – | –
BC(=O)O.BC(=O)O.CN(C)CCCCCCCCCCN(C)C | 188 | 188 | 907 | – | – | – | – | – | – | – | – | –
CCCCCCCCCCCN(C)C.N#CBF | 64 | 64 | 64 | 129 | – | – | – | – | – | – | – | –
CCCCCCCCCCCN(C)C.N#CBBr | 49 | 49 | 49 | 131 | – | – | – | – | – | – | – | –
C[C@@H]1[C@H](O)[C@@H](C)/C=C/C=C/C=C/C=C/C=C/C=C/C=C/[C@H](O[C@@H]2O[C@H](C)[C@@H](O)[C@H](N)[C@@H]2O)C[C@@H]2O[C@](O)(C[C@@H](O)C[C@@H](O)[C@H](O)CC[C@@H](O)C[C@@H](O)CC(=O)O[C@H]1C)C[C@H](O)[C@H]2C(=O)O [AMPHOTERICIN B] | 0.54 (≈ 0.499 µg/mL) | 0.27 (≈ 0.25 µg/mL) | 0.27 (≈ 0.25 µg/mL) | 0.5 (≈ 0.462 µg/mL) | 2.14 (≈ 1.98 µg/mL) | 0.41 (≈ 0.379 µg/mL) | 4.32 (≈ 3.99 µg/mL) | 2.6 | 1.07 (≈ 0.989 µg/mL) | 4.32 (≈ 3.99 µg/mL) | 0.13 (≈ 0.12 µg/mL) | 0.82 (≈ 0.758 µg/mL)
CN(C)C.N#CB(Br)Br [DIBROMOBORANECARBONITRILE; TRIMETHYLAMINE] | 1970 | > 1970 | > 1970 | – | – | – | – | – | – | – | – | –
BC#N.CCCCCCCCCCCCN(C)C [DODECYLDIMETHYLAMINE CYANOBORANE] | 61 | 61 | 61 | – | – | – | – | – | – | – | – | –
OC(Cn1cncn1)(Cn1cncn1)c1ccc(F)cc1F [FLUCONAZOLE] | 1.6 (≈ 0.49 µg/mL) | 1.6 (≈ 0.49 µg/mL) | 1.6 (≈ 0.49 µg/mL) | > 208 | > 836 | 52.2 (≈ 16 µg/mL) | 104 (≈ 32 µg/mL) | – | > 836 | 104 (≈ 32 µg/mL) | – | –
